Columns and labels:
[1] = test system: adjuvant-associated biological themes in LV, SP, LN; details: LV, ID
In short: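 Per-mouse whole-organ transcriptomes; genes with eij/ei(c)>2.0 tested for theme enrichment via TargetMine (GO, KEGG, Reactome, others), Fisher's exact test, Holm-Bonferroni correction. Themes shared by all three mice kept at p<0.05, using the smallest p. Score per adjuvant-associated term = Σ−log(p) of matching themes.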

liver (LV) = test: Whole organ transcriptome (GeneChip microarray) of liver 6 h after adjuvant administration: sDEGs, hierarchical clustering; assay type: in vivo, C57BL/6 mice; details: hierarchical clustering, liver; further: key: G1 (interferon signaling); G2 (metabolism of lipids and lipoproteins); G3 (response to stress); G4 (response to wounding); G5 (phosphate-containing compound metabolic process); G6 (phagosome)

SMILES: CCOCc1nc2c(N)nc3ccccc3c2n1CC(C)(C)O [R848, 4-amino-2-(ethoxymethyl)-a,a-dimethyl-1H-imidazo[4,5-c]quinoline-1-ethanol]
- IFN alpha, GO annotation line 1 of 5 [1]: 10.2
- IFN alpha, GO annotation line 2 of 5 [1]: 3.15
- IFN alpha: cellular response to interferon-alpha [1]: 0
- IFN alpha: positive regulation of interferon-alpha production [1]: 0
- IFN alpha: regulation of interferon-alpha production [1]: 0
- IFN beta: cellular response to interferon-beta [1]: 17.9
- IFN beta: interferon-beta production [1]: 7.51
- IFN beta: positive regulation of interferon-beta production [1]: 6.66
- IFN beta: regulation of interferon-beta production [1]: 5.68
- IFN beta: response to interferon-beta [1]: 23.9
- IFN gamma: cellular response to interferon-gamma [1]: 11.2
- IFN gamma: interferon-gamma production [1]: 0
- IFN gamma: regulation of interferon-gamma production [1]: 0
- IFN gamma: response to interferon-gamma [1]: 15.7
- NF-kappa B signaling pathway, GO annotation line 1 of 4 [1]: 8.86
- NF-kappa B signaling pathway, GO annotation line 2 of 4 [1]: 7.93
- NF-kappa B signaling pathway, GO annotation line 3 of 4 [1]: 5.3
- NF-kappa B signaling pathway, GO annotation line 4 of 4 [1]: 5.28
- TNF signaling pathway [1]: 16.1
- adaptive immune response, GO annotation line 1 of 5 [1]: 4.42
- adaptive immune response, GO annotation line 2 of 5 [1]: 6.23
- adaptive immune response, GO annotation line 3 of 5 [1]: 4.06
- adaptive immune response, GO annotation line 4 of 5 [1]: 0
- adaptive immune response, GO annotation line 5 of 5 [1]: 0
- apoptosis, GO annotation line 1 of 8 [1]: 18.6
- apoptosis, GO annotation line 2 of 8 [1]: 15.5
- apoptosis, GO annotation line 3 of 8 [1]: 10.6
- apoptosis, GO annotation line 4 of 8 [1]: 5.18
- apoptosis, GO annotation line 5 of 8 [1]: 4.1
- apoptosis, GO annotation line 6 of 8 [1]: 5.48
- apoptosis, GO annotation line 7 of 8 [1]: 0
- apoptosis, GO annotation line 8 of 8 [1]: 0
- cell death, GO annotation line 1 of 9 [1]: 23.1
- cell death, GO annotation line 2 of 9 [1]: 18.3
- cell death, GO annotation line 3 of 9 [1]: 19.4
- cell death, GO annotation line 4 of 9 [1]: 15.5
- cell death, GO annotation line 5 of 9 [1]: 15.5
- cell death, GO annotation line 6 of 9 [1]: 4.66
- cell death, GO annotation line 7 of 9 [1]: 4.64
- cell death, GO annotation line 8 of 9 [1]: 0
- cell death, GO annotation line 9 of 9 [1]: 0
- chemokine, GO annotation line 1 of 4 [1]: 3.95
- chemokine, GO annotation line 2 of 4 [1]: 0
- chemokine, GO annotation line 3 of 4 [1]: 0
- chemokine, GO annotation line 4 of 4 [1]: 0
- chemotaxis, GO annotation line 1 of 11 [1]: 11
- chemotaxis, GO annotation line 2 of 11 [1]: 0
- chemotaxis, GO annotation line 3 of 11 [1]: 8.03
- chemotaxis, GO annotation line 4 of 11 [1]: 3.91
- chemotaxis, GO annotation line 5 of 11 [1]: 0
- chemotaxis, GO annotation line 6 of 11 [1]: 4.44
- chemotaxis, GO annotation line 7 of 11 [1]: 3.7
- chemotaxis, GO annotation line 8 of 11 [1]: 3.31
- chemotaxis, GO annotation line 9 of 11 [1]: 0
- chemotaxis, GO annotation line 10 of 11 [1]: 3.62
- chemotaxis, GO annotation line 11 of 11 [1]: 0
- cytokine, GO annotation line 1 of 17 [1]: 44.8
- cytokine, GO annotation line 2 of 17 [1]: 30.5
- cytokine, GO annotation line 3 of 17 [1]: 30.4
- cytokine, GO annotation line 4 of 17 [1]: 11.1
- cytokine, GO annotation line 5 of 17 [1]: 30.4
- cytokine, GO annotation line 6 of 17 [1]: 26.5
- cytokine, GO annotation line 7 of 17 [1]: 16.5
- cytokine, GO annotation line 8 of 17 [1]: 5.44
- cytokine, GO annotation line 9 of 17 [1]: 4.8
- cytokine, GO annotation line 10 of 17 [1]: 20.3
- cytokine, GO annotation line 11 of 17 [1]: 5.01
- cytokine, GO annotation line 12 of 17 [1]: 0
- cytokine, GO annotation line 13 of 17 [1]: 5.55
- cytokine, GO annotation line 14 of 17 [1]: 6.84
- cytokine, GO annotation line 15 of 17 [1]: 0
- cytokine, GO annotation line 16 of 17 [1]: 0
- cytokine, GO annotation line 17 of 17 [1]: 0
- defense response, GO annotation line 1 of 11 [1]: 71.2
- defense response, GO annotation line 2 of 11 [1]: 50.3
- defense response, GO annotation line 3 of 11 [1]: 33.9
- defense response, GO annotation line 4 of 11 [1]: 46.5
- defense response, GO annotation line 5 of 11 [1]: 18.6
- defense response, GO annotation line 6 of 11 [1]: 8.29
- defense response, GO annotation line 7 of 11 [1]: 5.54
- defense response, GO annotation line 8 of 11 [1]: 20
- defense response, GO annotation line 9 of 11 [1]: 6.02
- defense response, GO annotation line 10 of 11 [1]: 4.72
- defense response, GO annotation line 11 of 11 [1]: 0
- immune response, GO annotation line 1 of 8 [1]: 54.5
- immune response, GO annotation line 2 of 8 [1]: 27.8
- immune response, GO annotation line 3 of 8 [1]: 34.2
- immune response, GO annotation line 4 of 8 [1]: 14.6
- immune response, GO annotation line 5 of 8 [1]: 12.6
- immune response, GO annotation line 6 of 8 [1]: 15.1
- immune response, GO annotation line 7 of 8 [1]: 0
- immune response, GO annotation line 8 of 8 [1]: 0
- inflammatory response, GO annotation line 1 of 5 [1]: 22.2
- inflammatory response, GO annotation line 2 of 5 [1]: 6.29
- inflammatory response, GO annotation line 3 of 5 [1]: 0
- inflammatory response, GO annotation line 4 of 5 [1]: 0
- inflammatory response, GO annotation line 5 of 5 [1]: 0
- innate immune response, GO annotation line 1 of 6 [1]: 49.6
- innate immune response, GO annotation line 2 of 6 [1]: 37.9
- innate immune response, GO annotation line 3 of 6 [1]: 22.9
- innate immune response, GO annotation line 4 of 6 [1]: 17.9
- innate immune response, GO annotation line 5 of 6 [1]: 13.8
- innate immune response, GO annotation line 6 of 6 [1]: 8.91
- interleukin-6: interleukin-6 production [1]: 7.8
- interleukin-6: positive regulation of interleukin-6 production [1]: 4.53
- interleukin-6: regulation of interleukin-6 production [1]: 6.67
- interleukin-12: interleukin-12 production [1]: 0
- interleukin-12: positive regulation of interleukin-12 production [1]: 0
- interleukin-12: regulation of interleukin-12 production [1]: 0
- migration, GO annotation line 1 of 10 [1]: 8.03
- migration, GO annotation line 2 of 10 [1]: 0
- migration, GO annotation line 3 of 10 [1]: 7.89
- migration, GO annotation line 4 of 10 [1]: 5.8
- migration, GO annotation line 5 of 10 [1]: 3.14
- migration, GO annotation line 6 of 10 [1]: 3.96
- migration, GO annotation line 7 of 10 [1]: 3.31
- migration, GO annotation line 8 of 10 [1]: 0
- migration, GO annotation line 9 of 10 [1]: 0
- migration, GO annotation line 10 of 10 [1]: 0
- stress, GO annotation line 1 of 3 [1]: 63.8
- stress, GO annotation line 2 of 3 [1]: 45.6
- stress, GO annotation line 3 of 3 [1]: 0
- wounding, GO annotation line 1 of 3 [1]: 11.1
- wounding, GO annotation line 2 of 3 [1]: 9.74
- wounding, GO annotation line 3 of 3 [1]: 4.53
- adjuvant group (cluster) in LV (liver (LV)): G1
